The record followed here is patent publication US20260041653A1, “AN HDAC INHIBITOR FOR TREATING CANCER WITH A MODIFIED STK11 ACTIVITY OR EXPRESSION” (Tango Therapeutics, Inc., priority 2022, published 2026).

Molecules are shown by their SMILES.

Data set [1] has as its system CT26 parental tumor (KRAS G12D). The experiment in a line: Anti-tumor efficacy in CT26 parental (wild-type) colon carcinoma model. The format is in vivo, mouse. Here is the method:
An in vivo anti-tumor efficacy of combination treatment of Anti-PD1 and Compound I in a CT26 mouse model was evaluated. CT26 is a colon carcinoma cell line with an endogenous KRAS G12D mutation. The experiment was performed in the parental/wild type line and in a line engineered with an STK11 knock-out (CT26_STK11KO) resulting in an anti-PD1 resistant model with lower CD8+ T cell infiltration.
In each of the experiments, the animals (8/group) were divided into four groups. Group I was treated with a control antibody Anti-IgG2, group 2 was treated with Compound I 75 mg/kg, group 3 was treated with anti-PD1 antibody, and group 4 was treated with Compound I 75 mg/kg and anti-PD1 antibody. Tumor volume and survival was monitored over the course of treatment. For the CT26_STK11KO model, the tumor volume was plotted by individual animal (FIG. 15A) and by treatment group (FIG. 15B). Survival was plotted by treatment group (FIG. 15C).
For the CT26 parental model, the tumor volume was plotted by treatment group (FIG. 15D) and by individual animal for groups 1 and 4 (FIG. 15E).
An in vivo anti-tumor efficacy of combination treatment of anti-CTLA4 and Compound I in a CT26 mouse model was evaluated. CT26 is a colon carcinoma cell line with an endogenous KRAS G12D mutation. The experiment was performed in the parental/wild type line and in a line engineered with an STK11 knock-out (CT26_STK11KO) resulting in an anti-CTLA4-resistant model.
An in vivo anti-tumor efficacy of double combination treatment of Anti-CTLA4 and Compound I in a CT26 syngeneic model was performed. CT26 is a colon carcinoma cell line. The experiment was also performed with an STK11-null CT26 model, this model is CTLA4 resistant.
There were 8 mice per group. Group I was treated with a control antibody Anti-IgG2, group 2 was treated with Compound I 75 mg/kg, group 3 was treated with anti-CTLA4 antibody, and group 4 was treated with Compound I 75 mg/kg and anti-CTLA4 antibody. Tumor volume was monitored over the course of treatment. The tumor volume was plotted by treatment group (FIG. 16A), and the individual animals were plotted for group 1 and group 4 (FIG. 16B), for the parental model. The tumor volume was plotted by treatment group (FIG. 16C), and the individual animals were plotted for group 1 and group 4 (FIG. 16D), for the STK11 knockout model.

The nature of data set [2]: Pharmacokinetics in cynomolgus monkeys. To be noted: cynomolgus monkey, plasma. The format is in vivo. As to the method: The PK of Compound I in male cynomolgus monkeys was determined in plasma following single IV bolus and PO administration to non-naïve male cynomolgus s monkeys The vehicle used for IV was 20% wt/vol HPβCD, 1% vol/vol DMSO in saline and for PO was in 0.5% MC (suspension). Plasma samples were collected from 3 animals/group at 0.083, 0.25, 0.5, 1, 3, 6, 9, 12, 24, and 48 hours after dosing.

Data set [3] has as its target CYP2C19 (Homo sapiens, UniProt P33261). The experiment in a line: Metabolism by recombinant human CYP2C19. The format is in vitro ADME. As to conditions: read-out: terminal half life (T1/2), rh CYP2C19. Here is the method: (§1) Drug metabolizing enzymes involved in the biotransformation of Compound I were investigated using human liver microsomes (HLM) and recombinant enzymes. Compound I was stable in HLMs (>93% remaining after 240 minutes of incubation with HLM protein concentration at 0.6 mg/ml). CYP selective inhibitor experiments were not performed due to lack of appreciable Compound I turnover.

Data set [4] has as its target CYP2D6 (Homo sapiens, UniProt P10635). The experiment in a line: Metabolism by recombinant human CYP2D6. It is filed as in vitro ADME. To be noted: read-out: terminal half life (T1/2), rh CYP2D6. As to the method: as §1
For data set [5], the system named is acetyl-histone H2B. The experiment in a line: PK/PD study, acetyl-histone H2B in PBMC by flow cytometry. To be noted: 300 mg/kg QD, 2 days; 24 hours after last dose; vs vehicle control. The format is in vivo, C57BL/6 mice. Here is the method: In a separate PK/PD study, MC38 tumor-bearing female C57BL/6 mice (12/group) were assigned to treatment groups with similar mean tumor volumes of approximately 430 mm^3 and treated with vehicle (5% N,N-dimethylacetamide [DMA]+30% polyethylene glycol [PEG] 400+65% of 30% 2-hydroxypropyl-beta-cyclodextrin [HP-β-CD] in water) or Compound I at 30, 100, and 300 mg/kg once daily (QD) for 2 days. Plasma samples were collected at 1, 2, 8 and 24 hours after last dose and analyzed for Compound I concentrations. Peripheral blood mononuclear cells (PBMC) and tumor samples were harvested at 2, 8, and 24 hours after last dose. The PBMC samples were processed for determination of mean florescent level of acetyl-histone H2B by flow cytometry. Tumor samples were processed for determination of protein levels of acetyl-histone H3 by Western blot.
In general terms: A flow cytometer gives signals particle by particle.

Data set [6] deals with cytokines and antigen presentation genes. The experiment in a line: Nanostring PanCancer IO 360 cytokine and HLA gene profiling of STK11-/- MC38. Also on record: species or system mouse. To be noted: 30 mg/kg for 7 days in vivo; 0.2 uM for 4 days in vitro. Here is the method: The cytokine expression of tumors from mice treated with Compound I was determined by Nanostring PanCancer IO 360 analysis.
Briefly, STK11−/− MC38 tumors from mice treated for 7 days with 30 mg/kg of Compound I or anti-PD1 antibody alone or in combination were collected 8 hours post last dose. The gene expression profiles of CXCL9, CXCL10, and CXCL11 of the tumors were determined by Nanostring PanCancer IO 360 (FIG. 9A). Additionally, the gene expression profiles of Treg-recruiting chemokines CCL1 and CCL22 of the tumors were determined by Nanostring PanCancer IO 360 (FIG. 9B).
STK11-deficient MC38 cells were also profiled for HLA gene expression by Nanostring IO360 panel in vitro after 4 days of treatment with Compound I at 0.2 uM compared to DMSO solvent control (FIG. 9C).

[7] abbreviates: Compound I 75 mg/kg QD alone, second of two values (two experiments, Examples 14 and 15).
Setting [8] is: Compound I 75 mg/kg QD, antibodies 10 mg/kg, for Compound I alone the first of two printed values.

CYP2D6, sequence (P10635 whole entry): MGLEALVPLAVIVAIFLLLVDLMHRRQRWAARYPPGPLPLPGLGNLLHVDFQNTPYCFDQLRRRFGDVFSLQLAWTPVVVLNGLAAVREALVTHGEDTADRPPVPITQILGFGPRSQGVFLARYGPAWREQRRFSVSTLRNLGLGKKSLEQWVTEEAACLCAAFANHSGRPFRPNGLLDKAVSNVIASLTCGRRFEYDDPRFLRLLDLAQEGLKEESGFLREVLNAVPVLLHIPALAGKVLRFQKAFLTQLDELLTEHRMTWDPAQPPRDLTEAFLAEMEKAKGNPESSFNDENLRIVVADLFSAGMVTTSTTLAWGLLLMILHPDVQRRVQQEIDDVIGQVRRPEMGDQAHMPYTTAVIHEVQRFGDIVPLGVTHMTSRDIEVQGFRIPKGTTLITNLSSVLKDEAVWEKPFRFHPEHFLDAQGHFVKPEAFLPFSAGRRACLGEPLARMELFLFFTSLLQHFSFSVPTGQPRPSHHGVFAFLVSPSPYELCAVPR
CYP2C19, sequence (P33261 whole entry): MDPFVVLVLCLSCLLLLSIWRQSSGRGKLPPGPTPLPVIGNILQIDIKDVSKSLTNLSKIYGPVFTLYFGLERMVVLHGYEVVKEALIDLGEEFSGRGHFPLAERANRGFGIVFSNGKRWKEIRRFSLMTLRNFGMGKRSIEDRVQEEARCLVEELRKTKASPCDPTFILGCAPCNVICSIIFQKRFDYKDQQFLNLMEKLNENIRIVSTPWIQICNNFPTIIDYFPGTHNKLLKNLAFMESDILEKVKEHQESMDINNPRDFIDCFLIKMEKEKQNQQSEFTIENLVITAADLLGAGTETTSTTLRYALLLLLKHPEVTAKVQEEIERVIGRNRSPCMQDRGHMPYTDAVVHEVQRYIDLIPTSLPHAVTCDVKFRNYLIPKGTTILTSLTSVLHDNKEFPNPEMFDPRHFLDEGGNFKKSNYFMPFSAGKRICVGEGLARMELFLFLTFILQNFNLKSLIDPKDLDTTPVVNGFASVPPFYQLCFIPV

As usually defined, the bioavailability is the share of a dose that reaches the circulation, judged against a reference dose that is usually intravenous. Take `C[S@@](=N)(=O)c1ccc(C(=O)Nc2cc(-c3ccc(F)cc3)ccc2N)cc1` [Compound I, (R)—N-(4-amino-4′-fluoro-[1,1′-biphenyl]-3-yl)-4-(S-methylsulfonimidoyl)benzamide]: the ORR % in data set [1] (setting [7]) and in data set [1] (setting [8]) was 63/63% in each case. The TGI % in data set [1] (setting [7]) is 66%; in data set [1] (setting [8]) it was 84%. In addition, the bioavailability in data set [2] (po, male cynomolgus monkeys, suspension at 3 mg/kg, fed, read-out: PO bioavailability (% F)) stood at 83%. For the same compound, the half-life in data set [2] (male) was 6.8 h; in data set [3], more than 1 h; in data set [4] it was more than 1 h. In data set [2] (male, intravenous, read-out: CL, p), the clearance stood at 9.4 mL/min/kg. In data set [5], the “maximal induction of histone acetylation in PBMC” value was 8 fold. The “immune evasion; expression of cytokines and antigen presentation genes” value in data set [6] is given as “reverses immune evasion on tumor cells”.
